# What was measured:
# Assay type in all cases: cell-based, human
# IL1B = assay: qRT-PCR RNA expression of cytokine IL1B gene in LS174T cells exposed to HMO; details: 1 mg/mL, 48 hours, normalized to GUSB, P<0.05
# Procedure: The ability of HMOs to increase expression of mucosal innate immune receptors and cytokines was tested by exposing LS174T human colorectal cancer cells, which are a model of human intestinal goblet cells, to either of the HMOs, 2′-FL or LNnT. The LS174T cells were obtained from the American Type Culture Collection (ATCC). LS174T cells were maintained in minimum essential medium supplemented with 10% Fetalplex, 1.5 g/L of Na2CO3, 10 ml/L penicillin G-streptomycin solution at 37° C. in 5% CO2. Cells were plated at 0.2×10^5 cells/ml/well in 24-well plates and allowed to attach for 24-30 hours. Solutions containing each HMO were prepared by resuspending lyophilized HMO in cell culture grade water to a 10% solution and filter-sterilizing before diluting to the appropriate level in culture media. A solution free of carbohydrates (i.e., fresh medium alone, Control) was also prepared using the same procedure. […] RNA expression levels of the genes for the mucosal innate immune receptor proteins TLR3, TLR4, CCR2 and the cytokine IL1B were determined by quantitative reverse transcriptase polymerase chain reaction (qRT-PCR) of RNA samples from the cells. […]
# CCR2 = assay: qRT-PCR RNA expression of CCR2 gene in LS174T cells exposed to HMO; details: 48 hours; for fold change in RNA expression of CCR2 relative to Control: normalized to GUSB, P<0.05
# Procedure: (§1) The ability of HMOs to increase expression of mucosal innate immune receptors and cytokines was tested by exposing LS174T human colorectal cancer cells, which are a model of human intestinal goblet cells, to either of the HMOs, 2′-FL or LNnT. The LS174T cells were obtained from the American Type Culture Collection (ATCC). LS174T cells were maintained in minimum essential medium supplemented with 10% Fetalplex, 1.5 g/L of Na2CO3, 10 ml/L penicillin G-streptomycin solution at 37° C. in 5% CO2. Cells were plated at 0.2×10^5 cells/ml/well in 24-well plates and allowed to attach for 24-30 hours. Solutions containing each HMO were prepared by resuspending lyophilized HMO in cell culture grade water to a 10% solution and filter-sterilizing before diluting to the appropriate level in culture media. A solution free of carbohydrates (i.e., fresh medium alone, Control) was also prepared using the same procedure. After preparation of the HMO-containing solutions, the LS174T cell cultures were rinsed with 1×HBSS and then incubated in 0.5 ml of fresh medium alone (Control) or containing 0.1 mg/mL or 1 mg/mL of 2′-FL (2FL), LNnT (LNnT), fucose (FUCOSE), or lactose (LAC) for 48 hours. Cells were harvested at the end of incubation with 1 ml of TRIzol to obtain RNA samples. RNA expression levels of the genes for the mucosal innate immune receptor proteins TLR3, TLR4, CCR2 and the cytokine IL1B were determined by quantitative reverse transcriptase polymerase chain reaction (qRT-PCR) of RNA samples from the cells. Fold change (Fold induction) in the RNA expression levels of the genes for the receptor proteins and the cytokine was normalized based on the change in GUSB transcript expression. Reported fold changes are the mean+/−[…]. Treatments with statistically significant differences in fold expression (P<0.05) are reported with different letters above the bars.
# MUC2 = assay: qRT-PCR RNA expression of MUC2 gene in LS174T cells exposed to HMO; details: 0.1 mg/mL, 48 hours
# TLR4 = assay: qRT-PCR RNA expression of TLR4 gene in LS174T cells exposed to HMO; details: 48 hours; for fold change in RNA expression of TLR4 relative to Control: normalized to GUSB, P<0.05
# Procedure: as §1
# TLR3 = assay: qRT-PCR RNA expression of TLR3 gene in LS174T cells exposed to HMO; details: 48 hours; for fold change in RNA expression of TLR3 relative to Control: normalized to GUSB, P<0.05
# Procedure: as §1
molecule,measurement,setting,value
2′-fucosyllactose [2′-FL],fold change in RNA expression of IL1B relative to Control,IL1B,statistically significant fold change
same,"increase in CCR2 expression, 0.1 mg/mL treatment compared with 1 mg/mL treatment",CCR2; 0.1 mg/mL vs 1 mg/mL,greater increase in expression in response to the 0.1 mg/mL 2′-FL treatment than the 1 mg/mL 2′-FL treatment
same,fold change in RNA expression of CCR2 relative to Control,CCR2; 0.1 mg/mL,statistically significant fold change
same,fold change in RNA expression of CCR2 relative to Control,CCR2; 1 mg/mL,statistically significant fold change
same,MUC2 gene expression,MUC2,significant increase
same,"increase in TLR4 expression, 0.1 mg/mL treatment compared with 1 mg/mL treatment",TLR4; 0.1 mg/mL vs 1 mg/mL,greater increase in expression in response to the 0.1 mg/mL 2′-FL treatment than the 1 mg/mL 2′-FL treatment
same,fold change in RNA expression of TLR4 relative to Control,TLR4; 0.1 mg/mL,statistically significant fold change
same,fold change in RNA expression of TLR4 relative to Control,TLR4; 1 mg/mL,statistically significant fold change
same,"increase in TLR3 expression, 0.1 mg/mL treatment compared with 1 mg/mL treatment",TLR3; 0.1 mg/mL vs 1 mg/mL,greater increase in expression in response to the 0.1 mg/mL 2′-FL treatment than the 1 mg/mL 2′-FL treatment
same,fold change in RNA expression of TLR3 relative to Control,TLR3; 0.1 mg/mL,statistically significant fold change
same,fold change in RNA expression of TLR3 relative to Control,TLR3; 1 mg/mL,statistically significant fold change
"CC(=O)N[C@H]1[C@H](O[C@H]2[C@@H](O)[C@@H](CO)O[C@@H](O[C@H]3[C@H](O)[C@@H](O)C(O)O[C@@H]3CO)[C@@H]2O)O[C@H](CO)[C@@H](O[C@@H]2O[C@H](CO)[C@H](O)[C@H](O)[C@H]2O)[C@@H]1O (mixture of isomers) [LNnT, lacto-N-neotetraose]",fold change in RNA expression of IL1B relative to Control,IL1B,significant change in expression
same,fold change in RNA expression of CCR2 relative to Control,CCR2; 0.1 mg/mL,significantly enhanced
same,fold change in RNA expression of CCR2 relative to Control,CCR2; 1 mg/mL,significant change in expression
same,fold change in RNA expression of TLR4 relative to Control,TLR4; 1 mg/mL,significant change in expression
same,fold change in RNA expression of TLR3 relative to Control,TLR3; 1 mg/mL,significant change in expression
